One assay has as its system MRL/lpr mice. Description: Treatment of MRL/lpr mice with KN-93 (lupus nephritis; urine and kidney histopathology). It is filed as in vivo, mouse. The method, then:
FIG. 7A is a graph showing the weekly quantification of urinary protein and leukocytes of pre-disease 8-week-old MRL/lpr mice treated with either KN-93 (40 mg/kg) or PBS. The agent was administered by intraperitoneal injections three times a week, every other week, during an 8-week time period. The arrows indicate the administration of the treatment. FIG. 7B is a graph showing the weekly quantification of urinary protein and leukocytes of diseased 12-week-old MRL/lpr mice (n≧5 mice per group) treated with KN-93 or PBS. Treatment was administered three times a week during a 5-week time period. FIG. 7C is a series of representative images of glomerular, tubule-interstitial, and perivascular areas from 16-week-old MRL/lpr mice treated with PBS (upper panels) and KN-93 (stained with Periodic Acid Schiff). The photographs from the middle panels correspond to mice treated before the onset of proteinuria (8 week-old). The lower panels correspond to mice treated after the disease had been established. The magnification is ×40 (glomerular), ×10 (tubular), and ×20 (perivascular).
We recorded proteinuria and pyuria in CaMKIV-deficient and sufficient MRL/lpr mice from the 6th to the 24th week of age. The mice in each group were placed overnight in a Nalgene metabolic cage to collect urine. Urine was measured with Multistix 10SG reagent strips and analyzed by a Clinitek Status analyzer (Bayer Healthcare). Proteinuria increased to 3 g/L in MRL/lpr mice at the age of 14 weeks and remained at the same level thereafter. However, in MRL/lprCaMKIV−/− mice, proteinuria remained at 1 g/L throughout the observation period. The number of leukocytes in the urine increased to 500 μl at week 14 in MRL/lpr mice, whereas it remained less than 15 μl in MRL/lprCaMKIV−/− mice (FIG. 4A).
To rule out such possibility, we used KN-93, a well-known CaMKIV inhibitor (Tsung et al., J Exp Med. 204: 2913-2923, 2007; Sato et al., Nat Med. 12: 1410-1416, 2006; and Ilario et al., Blood 111: 723-731, 2008), to treat MRL/lpr mice and determine its effect on the expression of lupus nephritis. The agent was administered by intraperitoneal injections at a dose of 0.08 mg/mouse, three times a week. We treated MRL/lpr mice with PBS (control) or KN-93 either every other week from week 8 to week 16 (disease prevention) (FIG. 7A) or weekly from week 12 to week 16 (disease treatment) (FIG. 7B).
In the disease prevention experiment, KN-93 administration was started either before the onset of proteinuria, when the mice were 8 weeks old. These mice received the agent every other week. In the disease treatment experiment, the effectiveness of KN-93 in established disease was evaluated. KN-93 administration was started when mice were 12 weeks old and continued three times a week during 5 weeks. Mice of both experiments were sacrificed at the end of their 16th week of age.

The subject of assay [1] is Splenocytes isolated from MRL/lpr mice. Kind of assay: CD86 expression on CD19 positive B cells of MRL/lpr splenocytes (flow cytometry). The conditions noted are these: KN-93 (10 μM). In kind it is cell-based, mouse. The method, then: Splenocytes were isolated from MRL/lpr mice and stimulated with LPS (1 μg/ml) or PBS for 24 hours. FIGS. 10A and 10C are bar graphs showing the expression of CD86 in LPS-stimulated cells (FIG. 10A) and unstimulated cells (FIG. 10C). A Kruskal-Wallis test was used for statistical analyses. Results are expressed as mean+SD CP=0.01; n=three 24-week-old mice per group). FIGS. 10B and 10D are representative histograms comparing CD86 expression on LPS-stimulated (FIG. 10B) and unstimulated splenocytes (FIG. 10D). Splenocytes were treated with KN-93 (10 μM) (right panel) or PBS (left panel) for 24 hours. Shaded areas represent isotype control staining.
We wished to determine whether CaMKIV deficiency suppresses CD86 expression in all types of antigen presenting cells (APC). Splenocytes were isolated from MRL/lpr and MRL/lprCaMKIV−/− mice and stimulated with LPS (1 μg/ml) or PBS for 24 hours. We stained cells with fluorochrome-conjugated antibodies against the major histocompatibility complex (MHC) class II (eBioscience) (all APCs), CD19 (B cells), CD11c (dendritic cells), and F4/80 (macrophages) (BioLegend). […]
Splenocytes isolated from MRL/lpr mice were stimulated with LPS (1 μg/ml) or PBS for 24 hours in the presence or absence of KN-93. CD19 positive B cells were analyzed for the expression of CD86. […]
In general terms: In flow cytometry, cells or beads pass a laser one at a time.

For the next assay, the system named is Normal human T cells. Description: IFN-γ production and CD69 expression in normal human T cells. In kind it is cell-based. As for the experimental part:
(§1) FIG. 15A is a bar graph showing IFN-γ levels in supernatants from human T cells incubated with PBS or CD3/28 and treated with either PBS (white bars) or with KN-93 (black bars). FIG. 15B are histograms comparing CD69 expression in human T cells incubated with PBS (left) or with CD3/28 (right). Data are shown for control (gray), treatment with PBS (dotted line), and treatment with KN-93 (solid line). FIG. 15C is a series of bar graphs showing […] (left), IL-6 (middle), and TNF-α(right) levels in supernatants from macrophages incubated with PBS or LPS and treated with either PBS (white bars) or with KN-93 (black bars). Normal human T cells and macrophages were treated with PBS (control) or KN-93. […] Furthermore, the activity of IL-6 in murine mesangial cells decreases in the absence of CaMKIV. Taken together, inhibition of CaMKIV by KN-93 or absence of CaMKIV (e.g., by genetic deficiency) decreases the expression of various pro-inflammatory cytokines, and inhibitors of CaMKIV could be used to treat disorders associated with one or more of such cytokines (e.g., autoimmune disorders).

A further assay deals with macrophages. Description: Cytokine production in normal human macrophages. In kind it is cell-based. The conditions noted are these: supernatants from macrophages incubated with PBS or LPS, KN-93 vs PBS. The method, then:
as §1

Assay [2] deals with primary mesangial cells. Description: Mesangial cell proliferation (cell cycle analysis, flow cytometry). It is filed as cell-based, mouse. As for the experimental part:
FIG. 16A is a series of histograms in unstimulated cells (left) and cells stimulated with PDGF (right). FIG. 16B is a series of immunoblots of protein extracts obtained from murine mesangial cells and immunoblotted with anti-CDK2 or anti-cyclin D1 antibodies. After isolation from MRL/MPJ or MRL/lpr mice, these cells were untreated, treated with KN-93, treated with PDGF, or treated with both KN-93 and PDGF. Briefly, four hundred thousand primary mesangial cells were incubated in 2 mL of RPMI 1640 with 10% FBS. Cells were plated in 6-well plates and made quiescent by serum starvation for 24 hours. Then, cells were treated with 20 ng/ml of PDGF-BB (PeproTech, Inc. Rocky Hill, N.J.) for 24 hours. In some experiments, cells were pretreated with KN-93 (20 μM) for 48 hours before the addition of PDGF-BB. For cell cycle analysis, mesangial cells were harvested with trypsin, washed twice with PBS, fixed in cold 95% ethanol, and stored at 4° C. until use. Before flow cytometric analysis, cells were washed with PBS and centrifuged, and the cell pellets were resuspended in a solution of RNAse (0.5 mg/ml) in PBS and incubate at 37° C. for 20 minutes. Then, propidium iodide (PI) (40 μg/ml) was added in PBS for 30 minutes. Stained cells were analyzed with a flow cytometer (model FACS Scan; BD Bioscience, Franklin Lakes, N.J.). […]

The subject of assay [3] is primary mesangial cells. Description: Western blot of CDK2 and cyclin D1 in mesangial cells. It is filed as cell-based, mouse. The conditions noted are these: mesangial cells from MRL/MPJ or MRL/lpr mice, immunoblot. The method, then:
FIG. 16A is a series of histograms in unstimulated cells (left) and cells stimulated with PDGF (right). FIG. 16B is a series of immunoblots of protein extracts obtained from murine mesangial cells and immunoblotted with anti-CDK2 or anti-cyclin D1 antibodies. After isolation from MRL/MPJ or MRL/lpr mice, these cells were untreated, treated with KN-93, treated with PDGF, or treated with both KN-93 and PDGF. Briefly, four hundred thousand primary mesangial cells were incubated in 2 mL of RPMI 1640 with 10% FBS. Cells were plated in 6-well plates and made quiescent by serum starvation for 24 hours. Then, cells were treated with 20 ng/ml of PDGF-BB (PeproTech, Inc. Rocky Hill, N.J.) for 24 hours. In some experiments, cells were pretreated with KN-93 (20 μM) for 48 hours before the addition of PDGF-BB. For Western blot analysis, mesangial cells were homogenized in radioimmunoprecipitation assay (RIPA) buffer at 4° C. After centrifugation at 14,000 rpm for 30 min at 4° C., supernatant was collected and stored at −80° C. until use. The following antibodies were used for immunoblot assay: rabbit anti-CDK2, rabbit anti-cyclin D1 (Cell signaling) and rabbit anti-actin (Sigma).
A general note: Immunoblotting shows a protein as a band on a membrane.

The mark [4] stands for this setting: kidneys of KN-93 treated MRL/lpr mice.

With `COc1ccc(S(=O)(=O)N(CCO)c2ccccc2CN(C)CC=Cc2ccc(Cl)cc2)cc1` [KN-93, N-[2-[[[3-(4-chlorophenyl)-2-propenyl]methylamino]methyl]phenyl]-N-(2-hydroxyethyl)-4-methoxybenzenesulphonamide], the “kidney pathology, determined histopathologically” value in the assay with MRL/lpr mice (16-week-old MRL/lpr mice, KN-93 vs PBS) is listed as “less kidney pathology”. Further, the “protein in the urine (proteinuria)” value in the assay with MRL/lpr mice (MRL/lpr mice, KN-93 i.p. 0.08 mg/mouse three times a week, both schemes (every other week, weeks 8-16; weekly, weeks 12-16), PBS-treated mice 3 g/L) was “less than 1 g/L”. Moreover, the “leukocytes in the urine (pyuria)” value in the assay on MRL/lpr mice (MRL/lpr mice, KN-93 i.p. 0.08 mg/mouse three times a week, both schemes, PBS-treated mice 500 leukocytes/μl) is given as under 125 leukocytes/μl. In the assay on MRL/lpr mice (setting [4]), the glomerular crescents result is given as “did not have any glomerular crescents”; the “glomerular damage, interstitial, and perivascular inflammatory cell infiltration” value was “limited”. Further, the “expression of CD86 on stimulated cells” value in assay [1] (LPS (1 μg/ml) 24 hours) is on record as “suppressed”. Besides, in assay [1] (PBS 24 hours), the “expression of CD86 in non-LPS stimulated cells” value is “trend towards lower expression”. In the assay on Normal human T cells (normal human T cells, KN-93 vs PBS), the “expression of CD69 on T cells” value is recorded as “decreased expression”. Further, the “production of IFN-γ” value with Normal human T cells (supernatants from human T cells incubated with PBS or CD3/28, KN-93 vs PBS) is reported as “decreased production”. In the assay on macrophages, the “production of IL-1β” value was “decreased production”, the “production of IL-6” value is listed as “decreased production” and the “production of TNF-α” value is recorded as “decreased production”. Also, the mesangial cell proliferation entry in the assay with primary mesangial cells [2] (with PDGF stimulation (20 ng/ml PDGF-BB 24 hours), pretreated with KN-93 (20 μM) 48 hours) is “suppressed”. In the assay on primary mesangial cells [2] (without PDGF stimulation, KN-93 (20 μM) 48 hours), the mesangial cell proliferation result is recorded as “suppressed”. Also, in the assay on primary mesangial cells [3], the “presence of CD-K2” value was “decreased” and the “presence of cyclin D1” value is recorded as “decreased”.
